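In this assay, cells in 96-well plates receive the compound at five concentrations for 48 hours. Endpoints are linearly interpolated between the surrounding concentrations. Here, GI50 denotes the concentration required for 50% inhibition of growth. Definition used: TGI = concentration required for complete inhibition of growth.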 Where only a bound is given, the exact number is not on record here.

For nine compounds, GI50 and TGI results are on record in PubChem BioAssay (NCI).

Among the test systems are 786-0 renal; CAKI-1 renal; EKVX NSCLC; MOLT-4 leukemia; OVCAR-4 ovarian; SK-MEL-2 melanoma; SK-MEL-28 melanoma; SN12C renal; SR leukemia; T-47D breast.
What all share (assay): NCI tumour cell line growth inhibition, 48 h

Take `Brc1ccc2[nH]cc(-c3nc(-c4c[nH]c5ncccc45)cs3)c2c1`: the GI50 is 1.88 µM in the assay with 786-0 renal; 1.67 µM in the assay on CAKI-1 renal; 2.13 µM with EKVX NSCLC; 2.97 µM in the assay with MOLT-4 leukemia; 3.31 µM in the assay on OVCAR-4 ovarian; 7.11 µM in the assay on SK-MEL-2 melanoma. Besides, the GI50 in the assay on SK-MEL-28 melanoma was 4.27 µM; with SN12C renal it was 4.1 µM; with SR leukemia it was 3.25 µM; in the assay on T-47D breast it was 4.97 µM. The TGI amounted to 4.49 µM with 786-0 renal; 10.5 µM in the assay on CAKI-1 renal; 18.6 µM in the assay on EKVX NSCLC; 35.6 µM with MOLT-4 leukemia; 20.8 µM with OVCAR-4 ovarian; 20.3 µM in the assay with SK-MEL-2 melanoma. The TGI turned out to be 16.1 µM in the assay with SK-MEL-28 melanoma, 19.4 µM in the assay with SN12C renal, 14.3 µM in the assay with SR leukemia and 20.3 µM in the assay on T-47D breast.

As to `O=C(O)C1CCCCC1c1c2ccc(=O)c(O)c-2oc2c(O)c(O)ccc12` (stereo not given), the TGI with 786-0 renal is 46.2 µM; with CAKI-1 renal, more than 100 µM; in the assay with EKVX NSCLC, more than 100 µM; with MOLT-4 leukemia, 84.4 µM; in the assay on OVCAR-4 ovarian, 64 µM; in the assay on SK-MEL-2 melanoma, more than 100 µM. The TGI with SK-MEL-28 melanoma was more than 100 µM; in the assay with SN12C renal, 39.3 µM; with SR leukemia, more than 100 µM; with T-47D breast, more than 100 µM.

`O=[N+]([O-])c1ccc(Oc2nc(Nc3ccc(O[C@H]4CO[C@H]5[C@@H]4OC[C@@H]5O)c(Cl)c3)ncc2F)c(Cl)c1`: the GI50 in the assay on 786-0 renal was 1.3 µM; with CAKI-1 renal, 2.28 µM; in the assay on EKVX NSCLC it was 2.22 µM; in the assay on MOLT-4 leukemia, 1.27 µM; in the assay with OVCAR-4 ovarian it was 1.19 µM; with SK-MEL-2 melanoma, 0.483 µM. Also, the GI50 in the assay with SK-MEL-28 melanoma was 1.55 µM; in the assay with SN12C renal, 1.34 µM; in the assay on SR leukemia, 0.548 µM; in the assay on T-47D breast, 1.13 µM. Moreover, the TGI in the assay with 786-0 renal came to 4.24 µM; with CAKI-1 renal, 8.11 µM; in the assay on EKVX NSCLC it was 9.43 µM; in the assay on MOLT-4 leukemia it was 4.82 µM; in the assay on OVCAR-4 ovarian, 5.73 µM; with SK-MEL-2 melanoma it was 2.04 µM. For the same compound, the TGI amounted to 4.78 µM with SK-MEL-28 melanoma, 6.78 µM in the assay with SN12C renal, 7.79 µM with SR leukemia and 8.06 µM with T-47D breast.

Regarding `Oc1ccc(-c2nc3ccc4[nH]ncc4c3c3c2CCCC3)c(F)c1`, the GI50 is 2.5 µM in the assay with 786-0 renal; 2.69 µM with CAKI-1 renal; 3.16 µM with EKVX NSCLC; 1.91 µM in the assay with MOLT-4 leukemia; 3.38 µM in the assay on OVCAR-4 ovarian; 1.01 µM in the assay with SK-MEL-2 melanoma. Also, the GI50 with SK-MEL-28 melanoma is 2.74 µM; with SN12C renal, 2.99 µM; in the assay with SR leukemia it was 0.464 µM; in the assay with T-47D breast it was 1.57 µM. Besides, the TGI worked out at 12.1 µM in the assay with 786-0 renal; 9.73 µM with CAKI-1 renal; 13.5 µM with EKVX NSCLC; 8.88 µM in the assay with MOLT-4 leukemia; 16.1 µM in the assay on OVCAR-4 ovarian; 2.93 µM in the assay with SK-MEL-2 melanoma. Moreover, the TGI in the assay with SK-MEL-28 melanoma was 12.4 µM; with SN12C renal, 12.5 µM; in the assay on SR leukemia it was 7.46 µM; in the assay on T-47D breast, 6.61 µM.

As for `Cc1ccc(-c2c3c(nn2-c2ccc(S(N)(=O)=O)cc2)-c2ccccc2C3)cc1`, the GI50 was 15.2 µM in the assay with 786-0 renal; 17.7 µM in the assay on CAKI-1 renal; 19.5 µM with EKVX NSCLC; 10.8 µM with MOLT-4 leukemia; 15.4 µM with OVCAR-4 ovarian; 12.2 µM in the assay with SK-MEL-2 melanoma. The GI50 was 17.7 µM in the assay with SK-MEL-28 melanoma, 16.9 µM in the assay with SN12C renal, 15.2 µM in the assay on SR leukemia and 71.3 µM in the assay with T-47D breast. Moreover, the TGI worked out at 31.8 µM in the assay with 786-0 renal; 32.6 µM in the assay on CAKI-1 renal; 51.7 µM in the assay with EKVX NSCLC; 42.7 µM with MOLT-4 leukemia; 32.8 µM in the assay with OVCAR-4 ovarian; 26.6 µM in the assay with SK-MEL-2 melanoma. For the same compound, the TGI in the assay on SK-MEL-28 melanoma was 33.8 µM; with SN12C renal, 36.9 µM; in the assay on SR leukemia, 60.2 µM; in the assay with T-47D breast, more than 100 µM.

On to `S=c1[nH]nc(Cc2ccccc2)c(=S)[nH]1`, for which the TGI in the assay with 786-0 renal is more than 100 µM; with CAKI-1 renal, more than 100 µM; in the assay with EKVX NSCLC it was more than 31.6 µM; in the assay on MOLT-4 leukemia, more than 100 µM; with OVCAR-4 ovarian it was more than 100 µM; with SK-MEL-2 melanoma, more than 76.9 µM. Further, the TGI in the assay with SK-MEL-28 melanoma is more than 100 µM; in the assay with SN12C renal it was more than 100 µM; in the assay with SR leukemia, more than 100 µM; in the assay with T-47D breast it was 75.4 µM.

In the case of `NC1=NC(c2ccc(Cl)cc2)N(c2ccc(S(N)(=O)=O)cc2)C(N)=N1` (stereo not given), the TGI in the assay on 786-0 renal, in the assay on CAKI-1 renal, in the assay with EKVX NSCLC, in the assay with MOLT-4 leukemia, in the assay with OVCAR-4 ovarian and in the assay on SK-MEL-2 melanoma was more than 100 µM in each case. In addition, the TGI in the assay on SK-MEL-28 melanoma, in the assay with SN12C renal, in the assay with SR leukemia and in the assay with T-47D breast was more than 100 µM in each case.

As for `COc1cccc(-c2nn(-c3ccccc3)cc2-c2ccnc(NCCNC(=O)Nc3cccc(C(F)(F)F)c3)c2)c1`, the GI50 is 1.93 µM with 786-0 renal; 1.95 µM in the assay on CAKI-1 renal; 2 µM in the assay on EKVX NSCLC; 2.02 µM in the assay on MOLT-4 leukemia; 2.36 µM in the assay on OVCAR-4 ovarian; 1.69 µM in the assay with SK-MEL-2 melanoma. Moreover, the GI50 in the assay with SK-MEL-28 melanoma is 1.83 µM; in the assay with SN12C renal it was 1.95 µM; in the assay on SR leukemia it was 1.91 µM; with T-47D breast, 2.23 µM. Further, the TGI is 4.39 µM with 786-0 renal; 5.62 µM in the assay with CAKI-1 renal; 6.65 µM with EKVX NSCLC; 4.81 µM in the assay with MOLT-4 leukemia; 8.13 µM in the assay with OVCAR-4 ovarian; 3.6 µM in the assay on SK-MEL-2 melanoma. Besides, the TGI in the assay on SK-MEL-28 melanoma turned out to be 3.77 µM; in the assay on SN12C renal, 4.06 µM; with SR leukemia it was 4.97 µM; with T-47D breast it was 6.01 µM.

With `Cc1ccc(C(NC(=O)c2ccccc2)c2ccc3cccnc3c2O)cc1` (stereo not given), the GI50 in the assay with 786-0 renal was 0.301 µM; in the assay on CAKI-1 renal, 0.328 µM; in the assay with EKVX NSCLC it was 0.357 µM; in the assay on MOLT-4 leukemia, 0.332 µM; in the assay on OVCAR-4 ovarian, 0.275 µM; in the assay on SK-MEL-2 melanoma, 0.608 µM. For the same compound, the GI50 in the assay on SK-MEL-28 melanoma is 0.492 µM; in the assay on SN12C renal, 0.451 µM; in the assay on SR leukemia, 0.197 µM; with T-47D breast, 0.478 µM. Besides, the TGI with 786-0 renal was 1.81 µM; with CAKI-1 renal it was more than 50.7 µM; in the assay with EKVX NSCLC, 53.5 µM; in the assay on MOLT-4 leukemia it was more than 70.2 µM; in the assay on OVCAR-4 ovarian, more than 52 µM; in the assay with SK-MEL-2 melanoma, 10.3 µM. Moreover, the TGI was 41.6 µM with SK-MEL-28 melanoma, 48.7 µM with SN12C renal, more than 63.5 µM in the assay with SR leukemia and 27.7 µM in the assay on T-47D breast.
